The values that follow come from ChEMBL document CHEMBL4138278, “Neothioviridamide, a Polythioamide Compound Produced by Heterologous Expression of a Streptomyces sp. Cryptic RiPP Biosynthetic Gene Cluster” (J Nat Prod, 2018).

Holding throughout (format): functional, cell-based
Test [1] concerns SK-OV-3. As to the kind of experiment: Cytotoxicity against human SKOV3 cells assessed as reduction in cell viability after 72 hrs by CellTiter-Glo luminescence assay. The note with it: SK-OV-3, 72 h. Background: ATP-based viability assays read luminescence as a measure of living cells.
Test [2] is described as follows: Cytotoxicity against human ACC-MESO1 cells assessed as reduction in cell viability after 72 hrs by CellTiter-Glo luminescence assay. The following applies: ACC-MESO-1, 72 h.
For test [3], the system named is Jurkat. As to the kind of experiment: Cytotoxicity against human Jurkat cells assessed as reduction in cell viability after 72 hrs by CellTiter-Glo luminescence assay.

As to `CSCCC(NC(=S)C(NC(=O)C(C)=O)C(C)C)C(=S)NC(C)C(=O)NC(C)C(=S)NC(C)C(=S)NC(C)C(=O)NC1C(=O)NC(C(C)C)C(=O)NC(C)C(=O)NC(Cc2ccccc2)C(=O)NC(C(O)c2cn(C)c[n+]2C)C(=O)N/C=C\SC1C` (stereo not drawn), the IC50 (in general, the concentration that inhibits the measured activity by half) turned out to be 2100 nM in test [1], 700 nM in test [2] and 400 nM in test [3].
